Converted amounts (≈) assume the structure as drawn. Where two headings read alike, the source gives them in different places.
Legend:
Type in all cases: cell-based
[1] = tested on: Aspergillus fumigatus NCPF7100; test: Planktonic fungus growth: broth microdilution assay (NCPF7100); details: Aspergillus fumigatus, NCPF7100, read-out: MIC75 Values against Aspergillus fumigatus isolate NCPF7100
[2] = tested on: Aspergillus fumigatus NCPF7099; test: Planktonic fungus growth: broth microdilution assay (NCPF7099); details: Aspergillus fumigatus, NCPF7099, n = 2-3, read-out: MIC75 Values against Aspergillus fumigatus isolate NCPF7099
Experimental: (§1) This assay was conducted using a modified method published by EUCAST (Rodriguez-Tudela, et al., 2008). Spores of Aspergillus fumigatus (NCPF2010, NCPF7010 [methionine 220 mutation], NCPF7099 [Glycine G54 mutation]) from Public Health England, Wiltshire; TR34/L98H mutants from St Louis Hospital, Paris, France; TR46/Y121F/T289A mutants from University of Delhi, Delhi, India) were cultured in Sabouraud dextrose agar for 3 days. A stock spore suspension was prepared from a Sabouraud dextrose agar culture by washing with PBS-tween (10 mL; phosphate buffered saline containing 0.05% Tween-20, 100 U/mL penicillin and 100 U/mL streptomycin). The spore count was assessed using a Neubauer haemocytometer and then adjusted to 10^6 spores/mL with PBS. A working suspension of spores (2×10^5 spores/mL) was prepared in filter sterilised, BSA MOPS RPMI-1640 (50 mL; RPMI-1640 containing 2 mM L-glutamine, 0.5% BSA, 2% glucose, 0.165 M MOPS, buffered to pH 7 with NaOH).
(§2) For the assay, BSA MOPS RPMI-1640 (50 μL/well) was added throughout the 384-well plate (Catalogue number 353962, BD Falcon, Oxford, UK) first. Test compounds (0.5 μL DMSO solution) were then added in quadruplicate using an Integra VIAFLO 96 (Integra, Zizers, Switzerland), and mixed well using a plate mixer. Subsequently 50 μL of the working spore suspension prepared above was added to all wells except non-spore control wells. For non-spore control wells, BSA MOPS-RPMI solution (50 μL/well) was added instead. The plate was covered with a plastic lid, and incubated (35° C. with ambient air) for 48 hr. The OD of each well at 530 nm was determined using a multi-scanner (Clariostar: BMG, Buckinghamshire, UK). The percentage inhibition for each well was calculated and the MIC50, MIC75 and MIC90 values were calculated from the concentration-response curve generated for each test compound.

[3] = Cell viability: resazurin assay; details: human, 1 day incubation, resazurin, n = 3
Experimental: BEAS2B cells were seeded in 384-well plates (100 μL; 3000/well/; BD Falcon, Catalogue No 353962) in RPMI-LHC8 (RPMI-1640 and LHC8 media combined in equal proportions) one day before experimentation. For cell-free control wells, RPMI-LHC8 (100 μL) was added. Test compounds (0.5 μL of a DMSO solution) were added to give a final DMSO concentration of 0.5% using an Integra VIAFLO 96 (Integra, Zizers, Switzerland). BEAS2B cells were incubated with each test compound for 1 day (37° C./5% CO2 in RPMI-LHC8). After addition of resazurin stock solution (5 μL, 0.04%) the plates were incubated for a further 4 hr (37° C./5% CO2). The fluorescence of each well at 545 nm (excitation) and 590 nm (emission) was determined using a multi-scanner (Clariostar: BMG Labtech). The percentage loss of cell viability was calculated for each well relative to vehicle (0.5% DMSO) treatment. Where appropriate, a CC50 value was calculated from the concentration-response curve generated from the concentration-response curve for each test compound.

[4] = tested on: Aureobasidium pullulans ATCC9348; test: Fungus panel screening, CLSI broth microdilution; details: for MIC50: 50% inhibition by visual inspection (CLSI); for MIC: 100% inhibition by visual inspection (CLSI), read-out: MIC100
Experimental: (§3) Fungus panel screening was conducted by Eurofins Panlabs Inc. The MIC and MIC50 values of the test articles were determined following the guidelines of the CLSI: broth microdilution methods for yeast (CLSI M27-A2), (CLSI, 2002) and for filamentous fungi (CLSI M38-A), (CLSI, 2008).

[5] = tested on: Candida glabrata AT0036583; test: Fungus panel screening, CLSI broth microdilution; details: Nakaseomyces glabratus; for MIC50: 50% inhibition by visual inspection (CLSI); for MIC: 100% inhibition by visual inspection (CLSI), read-out: MIC100
Experimental: as §3

[6] = tested on: Rhizopus oryzae ATCC11145; test: Fungus panel screening, CLSI broth microdilution; details: Rhizopus arrhizus; for MIC50: 50% inhibition by visual inspection (CLSI); for MIC: 100% inhibition by visual inspection (CLSI), read-out: MIC100
Experimental: as §3

[7] = tested on: Aspergillus flavus ATCC204304; test: Fungus panel screening, CLSI broth microdilution; details: for MIC50: 50% inhibition by visual inspection (CLSI); for MIC: 100% inhibition by visual inspection (CLSI), read-out: MIC100
Experimental: as §3

Candida glabrata 20197.1 = test: Fungus panel screening, CLSI broth microdilution; details: Nakaseomyces glabratus; for MIC50: 50% inhibition by visual inspection (CLSI); for MIC: 100% inhibition by visual inspection (CLSI), read-out: MIC100
Experimental: as §3

[8] = tested on: Chaectomium globosum ATCC44699; test: Fungus panel screening, CLSI broth microdilution; details: for MIC50: 50% inhibition by visual inspection (CLSI); for MIC: 100% inhibition by visual inspection (CLSI), read-out: MIC100
Experimental: as §3

[9] = tested on: Candida albicans 20183.073; test: Fungus panel screening, CLSI broth microdilution; details: for MIC50: 50% inhibition by visual inspection (CLSI); for MIC: 100% inhibition by visual inspection (CLSI), read-out: MIC100
Experimental: as §3

[10] = tested on: Penicillium chrysogenum ATCC9480; test: Fungus panel screening, CLSI broth microdilution; details: for MIC50: 50% inhibition by visual inspection (CLSI); for MIC: 100% inhibition by visual inspection (CLSI), read-out: MIC100
Experimental: as §3

[11] = tested on: Fusarium graminerarum ATCC16106; test: Fungus panel screening, CLSI broth microdilution; details: for MIC50: 50% inhibition by visual inspection (CLSI); for MIC: 100% inhibition by visual inspection (CLSI), read-out: MIC100
Experimental: as §3

[12] = tested on: Candida albicans ATCC10231; test: Fungus panel screening, CLSI broth microdilution; details: for MIC50: 50% inhibition by visual inspection (CLSI); for MIC: 100% inhibition by visual inspection (CLSI), read-out: MIC100
Experimental: as §3

Candida krusei ATCC6258 = test: Fungus panel screening, CLSI broth microdilution; details: Pichia kudriavzevii; for MIC50: 50% inhibition by visual inspection (CLSI); for MIC: 100% inhibition by visual inspection (CLSI), read-out: MIC100
Experimental: as §3

[13] = tested on: Candida albicans 20240.047; test: Fungus panel screening, CLSI broth microdilution; details: for MIC50: 50% inhibition by visual inspection (CLSI); for MIC: 100% inhibition by visual inspection (CLSI), read-out: MIC100
Experimental: as §3

[14] = tested on: Cryptococcus neoformans ATCC24067; test: Fungus panel screening, CLSI broth microdilution; details: for MIC50: 50% inhibition by visual inspection (CLSI); for MIC: 100% inhibition by visual inspection (CLSI), read-out: MIC100
Experimental: as §3

[15] = tested on: Trichophyton rubrum ATCC10218; test: Fungus panel screening, CLSI broth microdilution; details: for MIC: 100% inhibition by visual inspection (CLSI), read-out: MIC100; for MIC50: 50% inhibition by visual inspection (CLSI)
Experimental: as §3

[16] = tested on: Aspergillus fumigatus TR46 (TR46/Y121F/T289A); test: Planktonic fungus growth: broth microdilution assay (TR46); details: Aspergillus fumigatus, read-out: MIC75 Values against Aspergillus fumigatus isolate TR46
Experimental: as §1, §2

Row | Compound | MIC [1] | MIC [2] | MIC50 [4] | MIC [4] | MIC50 [5] | MIC [5] | MIC50 [6] | MIC [6] | MIC50 [7] | MIC [7] | MIC50 (Candida glabrata 20197.1) | MIC (Candida glabrata 20197.1) | MIC50 [8] | MIC [8] | MIC50 [9] | MIC [9] | MIC50 [10] | MIC [10] | MIC50 [11] | MIC [11] | other results
1 | Cc1cc(N2CCN(c3ccc(C(=O)N[C@H]4CCCC[C@@H]4O)cc3)CC2)ccc1OC[C@@H]1CO[C@@](Cn2cncn2)(c2ccc(F)cc2F)C1 [Compound (Ia), 4-(4-(4-(((3R,5R)-5-((1H-1,2,4-triazol-1-yl)methyl)-5-(2,4-difluorophenyl)tetrahydrofuran-3-yl)methoxy)-3-methylphenyl)piperazin-1-yl)-N-((1S,2S)-2-hydroxycyclohexyl) benzamide] | 0.0127 µM (≈ 0.00872 µg/mL) | 0.01 µM (≈ 0.00687 µg/mL) | 0.25 µg/mL (≈ 0.364 µM) | 1 µg/mL (≈ 1.46 µM) | 0.25 µg/mL (≈ 0.364 µM) | > 2 µg/mL | 0.25 µg/mL (≈ 0.364 µM) | 0.5 µg/mL (≈ 0.728 µM) | 0.13 µg/mL (≈ 0.189 µM) | 0.13 µg/mL (≈ 0.189 µM) | 0.0078 µg/mL (≈ 0.0114 µM) | > 2 µg/mL | 0.031 µg/mL (≈ 0.0451 µM) | 0.13 µg/mL (≈ 0.189 µM) | 0.125 µg/mL (≈ 0.182 µM) | > 2 µg/mL | 0.063 µg/mL (≈ 0.0917 µM) | 0.13 µg/mL (≈ 0.189 µM) | 0.13 µg/mL (≈ 0.189 µM) | 0.5 µg/mL (≈ 0.728 µM) | CC50 at 1 day ([3]; BEAS2B cells): > 14.6 µM; MIC50 [12]: 0.25 µg/mL (≈ 0.364 µM); MIC [12]: > 2 µg/mL; MIC50 (Candida krusei ATCC6258): 0.25 µg/mL (≈ 0.364 µM); MIC (Candida krusei ATCC6258): 0.25 µg/mL (≈ 0.364 µM); MIC50 [13]: 0.016 µg/mL (≈ 0.0233 µM); MIC [13]: > 2 µg/mL; MIC50 [14]: 0.016 µg/mL (≈ 0.0233 µM); MIC [14]: 0.063 µg/mL (≈ 0.0917 µM); MIC [15]: 0.031 µg/mL (≈ 0.0451 µM); MIC [16]: 0.093 µM (≈ 0.0639 µg/mL)
2 | CC[C@@H]([C@H](C)O)n1ncn(-c2ccc(N3CCN(c4ccc(OC[C@@H]5CO[C@@](Cn6cncn6)(c6ccc(F)cc6F)C5)cc4)CC3)cc2)c1=O [Posaconazole, reference compound] | 0.0597 µM (≈ 0.0418 µg/mL) | 0.167 µM (≈ 0.117 µg/mL) | 0.25 µg/mL (≈ 0.357 µM) | 1 µg/mL (≈ 1.43 µM) | 0.5 µg/mL (≈ 0.713 µM) | > 8 µg/mL | 0.13 µg/mL (≈ 0.186 µM) | > 8 µg/mL | 0.063 µg/mL (≈ 0.0899 µM) | 0.13 µg/mL (≈ 0.186 µM) | 0.031 µg/mL (≈ 0.0442 µM) | > 8 µg/mL | 0.13 µg/mL (≈ 0.186 µM) | 0.25 µg/mL (≈ 0.357 µM) | 0.25 µg/mL (≈ 0.357 µM) | > 8 µg/mL | 0.063 µg/mL (≈ 0.0899 µM) | 0.13 µg/mL (≈ 0.186 µM) | > 8 µg/mL | > 8 µg/mL | CC50 at 1 day ([3]; BEAS2B cells): > 14.3 µM; MIC50 [12]: 0.13 µg/mL (≈ 0.186 µM); MIC [12]: > 8 µg/mL; MIC50 (Candida krusei ATCC6258): 0.13 µg/mL (≈ 0.186 µM); MIC (Candida krusei ATCC6258): 0.25 µg/mL (≈ 0.357 µM); MIC50 [13]: 0.031 µg/mL (≈ 0.0442 µM); MIC [13]: > 8 µg/mL; MIC50 [14]: 0.016 µg/mL (≈ 0.0228 µM); MIC [14]: 0.25 µg/mL (≈ 0.357 µM); MIC50 [15]: < 0.008 µg/mL; MIC [15]: 0.031 µg/mL (≈ 0.0442 µM); MIC [16]: 0.414 µM (≈ 0.29 µg/mL)
3 | C[C@@H](c1ncncc1F)[C@](O)(Cn1cncn1)c1ccc(F)cc1F [Voriconazole] | 0.543 µM (≈ 0.19 µg/mL) | 0.113 µM (≈ 0.0395 µg/mL) | > 8 µg/mL | > 8 µg/mL | 0.25 µg/mL (≈ 0.716 µM) | > 8 µg/mL | 8 µg/mL (≈ 22.9 µM) | > 8 µg/mL | 1 µg/mL (≈ 2.86 µM) | 2 µg/mL (≈ 5.73 µM) | 0.031 µg/mL (≈ 0.0887 µM) | > 8 µg/mL | 0.5 µg/mL (≈ 1.43 µM) | 1 µg/mL (≈ 2.86 µM) | 4 µg/mL (≈ 11.5 µM) | > 8 µg/mL | 1 µg/mL (≈ 2.86 µM) | 2 µg/mL (≈ 5.73 µM) | > 8 µg/mL | > 8 µg/mL | CC50 at 1 day ([3]; read-out: BEAS2B Cell Viability CC50): > 28.6 µM; MIC50 [12]: 0.25 µg/mL (≈ 0.716 µM); MIC [12]: > 8 µg/mL; MIC50 (Candida krusei ATCC6258): 0.25 µg/mL (≈ 0.716 µM); MIC (Candida krusei ATCC6258): 1 µg/mL (≈ 2.86 µM); MIC50 [13]: 0.031 µg/mL (≈ 0.0887 µM); MIC [13]: > 8 µg/mL; MIC50 [14]: 0.016 µg/mL (≈ 0.0458 µM); MIC [14]: 1 µg/mL (≈ 2.86 µM); MIC50 [15]: < 0.008 µg/mL; MIC [15]: 0.063 µg/mL (≈ 0.18 µM); MIC [16]: > 2.86 µM

Reference: patent US10513511B2, “Aqueous suspension formulation comprising 4-(4-(4-(((3R,5R)-5-((1H-1,2,4-triazol-1-yl)methyl)-5-(2,4-difluoro-phenyl)tetrahydrofuran-3-yl)methoxy)-3-methylphenyl) or a pharmaceutically acceptable salt thereof” (PULMOCIDE LIMITED, priority 2015, dated 2019)
